Measurements from US6620808B2, “Endocrine modulation with positive modulators of AMPA type glutamate receptors” (The Regents of the University of California, priority 1997, dated 2003).

Tested on: Sections of the hypothalamus containing the arcuate nucleus
Experiment: release of GHRH from hypothalamic explants in static culture
Format: cell-based, rats
Details: GR87 at 100 μm
Excerpt: The arcuate nucleus of the hypothalamus contains the majority of cells that synthesize GHRH and secrete the releasing factor into the anterior pituitary. Sections of the hypothalamus containing the arcuate nucleus were explanted from postnatal day 10-12 rats and maintained in static culture. Once established, these cultures were used to test the prediction that positive, allosteric modulators of AMPA type glutamate receptors will increase the release of GHRH from the hypothalamus into the culture medium. Explants were exposed to GR87 at 100 μm for four hours on some days and to vehicle for the same period on other days. Concentrates of the media were prepared following the exposure periods of GHRH assayed using a commercially available kit. Using a within culture design, i.e. drug vs. vehicle in the same tissue well, provided a control for differences in tissue thickness and the extent to which the arcuate was contained within the explants. As shown, the amount of GHRH in the media was about threefold greater after four hours of treatment with ampakine than it was after an equivalent period of vehicle application. This effect was in the predicted direction and was statistically significant (p=0.011).
A single experiment was conducted to test if prolonged administration of GR87 at 100 μm would affect GHRH secretion. […]

O=C(c1ccc2c(c1)OCCO2)N1CCCCC1 [GR87]
media level of GHRH (24 hours, group of 12 explants (controls 18 ng/400 μl)): 47 ng/400 μl
amount of GHRH in the media relative to vehicle application (four hours, within-culture drug vs vehicle, p=0.011): about threefold
